Assay results as given in patent US20210299103A1, “COMPOSITION FOR PREVENTING OR TREATING CANCER, COMPRISING SULFONAMIDE DERIVATIVE AS ACTIVE INGREDIENT” (EXOSTEMTECH CO., LTD., priority 2018, published 2021).
Values after ≈ are worked out from the molar mass of the structure shown. “Also recorded” adds a separate entry of the source. Like-named read-outs stand apart in the source and are kept apart here.

Tests used:
[1] = tested on: Escherichia coli (ATCC 25922); test: Minimum inhibitory concentration (MIC) assay on Mueller-Hinton agar, CLSI guidelines; assay type: cell-based; settings: for antibiotic susceptibility / antibiotic effect (in words): E. coli; for MIC: E.coli (ATCC 25922), Mueller-Hinton agar
Description: (§1) Staphylococcus aureus (ATCC 29213) and Escherichia coli (ATCC 25922) were used.

[2] = tested on: Staphylococcus aureus (ATCC 29213); test: as above; assay type: cell-based; settings: for antibiotic susceptibility / antibiotic effect (in words): S. aureus; for MIC: S.aureus (ATCC 29213), Mueller-Hinton agar
Description: as §1

MDA-MB231 cells [3] = settings: 100, 200, 400 or 800 μM, cultured 24 hours, FIG. 3
Protocol: After seeding MDA-MB231 cells into a 24-well plate with 1×10^4 cells/well, the cells were stabilized by culturing for 24 hours.
After the culturing, the cells were incubated for 4 hours with an MTT tetrazolium reagent. Then, cell proliferation was investigated by measuring the absorbance of reduced MTT formazan (3-(4,5-dimethylthiazol-2-yl)-2,5-diphenyl-tetrazolium bromide) at 595 nm. Docetaxel (10 μM), which is currently used as an anticancer agent, was used as a control group.

[4] = tested on: MDA-MB231 breast cancer cells; test: Exosome secretion inhibition, exosomes counted with Nano-sight LM10; assay type: cell-based; settings: 100 μM, serum-free medium, 24 hours, FIG. 4
Protocol: MDA-MB231 breast cancer cells were cultured on a 150-mm culture plate. 24 hours later, after removing the medium and washing with PBS, the cells were treated with each compound at 100 μM together with a serum-free medium and cultured for 24 hours. After discarding the medium and centrifuging at 300×g for 3 minutes, 2,500×g for 15 minutes […] 10,000×g for 30 minutes, the supernatant was transferred to a fresh tube.
After filtering through a 200-nm syringe filter, exosome pellets were obtained by centrifuging at 120,000×g for 90 minutes. After redispersing the exosome pellets using PBS, the number of exosomes secreted by the cells was counted using Nano-sight LM10 (Malvern).

MDA-MB231 cells [5] = test: Cancer cell migration assay, 8 μm insert, crystal violet staining; assay type: cell-based; settings: 100, 200, 400 or 800 μM, 5 hours, FIG. 5

Structure (SMILES)	antibiotic susceptibility / antibiotic effect (in words) [1]	MIC [1]	antibiotic susceptibility / antibiotic effect (in words) [2]	MIC [2]	cytotoxicity (MTT, absorbance at 595 nm) (MDA-MB231 cells [3])	inhibition of secretion of exosomes [4]	inhibition of migration of the cancer cells (MDA-MB231 cells [5])	MIC ([1]; Escherichia coli, ATCC25922, read-out: MIC)	MIC ([2]; Staphylococcus aureus, ATCC29213, read-out: MIC)
CC(=O)Nc1ccc(S(=O)(=O)N(C(C)=O)c2onc(C)c2C)cc1 [SFX-DAS, sulfisoxazole-N^1&N^4-dual acetyl]	no antibiotic susceptibility at all; also recorded: completely disappeared	>512 µg/mL	no antibiotic susceptibility at all; also recorded: completely disappeared	>512 µg/mL	exhibit cytotoxicity at 100 μM or higher	strongly inhibit the secretion of exosomes	inhibited in a concentration-dependent manner		
CC(=O)N(c1onc(C)c1C)S(=O)(=O)c1ccc(N)cc1 [SFX-N1AS, sulfisoxazole-N^1-acetyl]	decreased antibiotic susceptibility; also recorded: reduced significantly	128 µg/mL (≈ 414 µM)	decreased antibiotic susceptibility; also recorded: reduced significantly	512 µg/mL (≈ 1660 µM)		strongly inhibit the secretion of exosomes	inhibited in a concentration-dependent manner		
CC(=O)Nc1ccc(S(=O)(=O)Nc2onc(C)c2C)cc1 [SFX-N4AS, sulfisoxazole-N^4-acetyl]	no antibiotic susceptibility at all; also recorded: completely disappeared	>512 µg/mL	no antibiotic susceptibility at all; also recorded: completely disappeared	>512 µg/mL		strongly inhibit the secretion of exosomes	inhibited in a concentration-dependent manner		
Cc1noc(NS(=O)(=O)c2ccc(N)cc2)c1C [SFX-WT, sulfisoxazole, reference compound]	strong antibiotic susceptibility		strong antibiotic susceptibility				inhibited in a concentration-dependent manner	16 µg/mL (≈ 59.9 µM)	32 µg/mL (≈ 120 µM)
